The record followed here is ChEMBL document CHEMBL1828534, “Synthesis and antitumor activity of 1,2,4-triazoles having 1,4-benzodioxan fragment as a novel class of potent methionine aminopeptidase type II inhibitors” (Bioorg Med Chem, 2011).

Assay [1] deals with HepG2. The assay can be described thus: cells. To be noted: Homo sapiens, HepG2, 24 h.
Description: Antiproliferative activity against human HepG2 cells after 24 hrs by MTT assay
Assay [2] concerns HeLa. The assay can be described thus: cells. Conditions: Homo sapiens, 24 h.
Description: Antiproliferative activity against human HeLa cells after 24 hrs by MTT assay
The nature of assay [3]: cells. To be noted: Homo sapiens, SW 1116, 24 h.
Description: Antiproliferative activity against human SW1116 cells after 24 hrs by MTT assay
Assay [4] has as its system BGC-823. The assay can be described thus: cells. Conditions: Homo sapiens, BGC-823, 24 h.
Description: Antiproliferative activity against human BGC823 cells after 24 hrs by MTT assay
Assay [5] concerns the target Methionine aminopeptidase 2 (Homo sapiens, UniProt P50579). The assay can be described thus: Inhibition of MetAP2 after 4 hrs.
Assay [6] deals with HepG2. As to the kind of experiment: Induction of apoptosis in human HepG2 cells after 24 hrs using annexin V-FITC and propidium iodide staining by flow cytometry analysis. Type of assay: functional, cell-based.
For assay [7], the system named is HepG2. As to the kind of experiment: Induction of apoptosis in human HepG2 cells assessed as viable cells at 0.5 uM after 24 hrs using annexin V-FITC and propidium iodide staining by flow cytometry analysis (Rvb =96.26 %). The assay is classed as functional. To be noted: HepG2, 24 h, read-out: Activity.
For assay [8], the system named is HepG2. The assay can be described thus: Induction of apoptosis in human HepG2 cells assessed as early apoptotic cells at 0.5 uM after 24 hrs using annexin V-FITC and propidium iodide staining by flow cytometry analysis (Rvb =0.02 %). Type of assay: functional. (In general: In flow cytometry, cells or beads pass a laser one at a time.)
In assay [9] the test system is HepG2. The assay can be described thus: Induction of apoptosis in human HepG2 cells assessed as late apoptotic/necrotic cells at 0.5 uM after 24 hrs using annexin V-FITC and propidium iodide staining by flow cytometry analysis (Rvb =0.02 %). The assay is classed as functional.
The subject of assay [10] is HepG2. As to the kind of experiment: Induction of apoptosis in human HepG2 cells assessed as late pre-necrotic cells at 0.5 uM after 24 hrs using annexin V-FITC and propidium iodide staining by flow cytometry analysis (Rvb =0.02 %). Type of assay: functional.
Assay [11] relates to HepG2. As to the kind of experiment: Induction of apoptosis in human HepG2 cells assessed as viable cells at 1 uM after 24 hrs using annexin V-FITC and propidium iodide staining by flow cytometry analysis (Rvb =96.26 %). Type of assay: functional. To be noted: HepG2, 24 h, read-out: Activity.
Assay [12] relates to HepG2. As to the kind of experiment: Induction of apoptosis in human HepG2 cells assessed as early apoptotic cells at 1 uM after 24 hrs using annexin V-FITC and propidium iodide staining by flow cytometry analysis (Rvb =0.02 %). Type of assay: functional.
The subject of assay [13] is HepG2. As to the kind of experiment: Induction of apoptosis in human HepG2 cells assessed as late apoptotic/necrotic cells at 1 uM after 24 hrs using annexin V-FITC and propidium iodide staining by flow cytometry analysis (Rvb =0.02 %). The assay is classed as functional.
For assay [14], the system named is HepG2. The assay can be described thus: Induction of apoptosis in human HepG2 cells assessed as late pre-necrotic cells at 1 uM after 24 hrs using annexin V-FITC and propidium iodide staining by flow cytometry analysis (Rvb =0.02 %). Type of assay: functional.
Assay [15] has as its system HepG2. The assay can be described thus: Induction of apoptosis in human HepG2 cells assessed as viable cells at 2 uM after 24 hrs using annexin V-FITC and propidium iodide staining by flow cytometry analysis (Rvb =96.26 %). Type of assay: functional. To be noted: HepG2, 24 h, read-out: Activity.
Assay [16] relates to HepG2. As to the kind of experiment: Induction of apoptosis in human HepG2 cells assessed as early apoptotic cells at 2 uM after 24 hrs using annexin V-FITC and propidium iodide staining by flow cytometry analysis (Rvb =0.02 %). The assay is classed as functional.
Assay [17] has as its system HepG2. As to the kind of experiment: Induction of apoptosis in human HepG2 cells assessed as late apoptotic/necrotic cells at 2 uM after 24 hrs using annexin V-FITC and propidium iodide staining by flow cytometry analysis (Rvb =0.02 %). The assay is classed as functional.
For assay [18], the system named is HepG2. As to the kind of experiment: Induction of apoptosis in human HepG2 cells assessed as late pre-necrotic cells at 2 uM after 24 hrs using annexin V-FITC and propidium iodide staining by flow cytometry analysis (Rvb =0.02 %). The assay is classed as functional.
The test system of assay [19] is HepG2. As to the kind of experiment: Induction of apoptosis in human HepG2 cells assessed as viable cells at 4 uM after 24 hrs using annexin V-FITC and propidium iodide staining by flow cytometry analysis (Rvb =96.26 %). The assay is classed as functional. To be noted: HepG2, 24 h, read-out: Activity.
Assay [20] has as its system HepG2. As to the kind of experiment: Induction of apoptosis in human HepG2 cells assessed as early apoptotic cells at 4 uM after 24 hrs using annexin V-FITC and propidium iodide staining by flow cytometry analysis (Rvb =0.02 %). The assay is classed as functional.
Assay [21] has as its system HepG2. The assay can be described thus: Induction of apoptosis in human HepG2 cells assessed as late apoptotic/necrotic cells at 4 uM after 24 hrs using annexin V-FITC and propidium iodide staining by flow cytometry analysis (Rvb =0.02 %). Type of assay: functional.
Assay [22] deals with HepG2. The assay can be described thus: Induction of apoptosis in human HepG2 cells assessed as late pre-necrotic cells at 4 uM after 24 hrs using annexin V-FITC and propidium iodide staining by flow cytometry analysis (Rvb =0.02 %). The assay is classed as functional.

Sequence of Methionine aminopeptidase 2 (P50579 whole entry): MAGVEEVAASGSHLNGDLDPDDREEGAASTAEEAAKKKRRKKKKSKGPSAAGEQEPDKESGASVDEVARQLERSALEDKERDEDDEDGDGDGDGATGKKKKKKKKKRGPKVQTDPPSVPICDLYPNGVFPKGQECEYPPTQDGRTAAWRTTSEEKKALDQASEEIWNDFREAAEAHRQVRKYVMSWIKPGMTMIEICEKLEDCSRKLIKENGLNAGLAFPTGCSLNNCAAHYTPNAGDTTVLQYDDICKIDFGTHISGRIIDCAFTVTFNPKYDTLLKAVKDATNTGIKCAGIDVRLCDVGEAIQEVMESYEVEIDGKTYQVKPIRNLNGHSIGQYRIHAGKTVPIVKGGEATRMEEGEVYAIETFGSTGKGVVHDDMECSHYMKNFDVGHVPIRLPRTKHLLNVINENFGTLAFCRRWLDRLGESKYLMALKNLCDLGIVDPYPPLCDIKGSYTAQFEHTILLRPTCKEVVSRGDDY

The IC50 is the point on the concentration scale where inhibition reaches its midpoint. Read a high IC50 as a need for much substance. Turning to `Brc1cccc(CSc2nnc(-c3ccc4c(c3)OCCO4)n2-c2ccccc2)c1`, the IC50 in assay [1] was found to be 5.21 µM; in assay [2], 44.2 µM; in [3], 26.2 µM; in assay [4], 65.6 µM.

In the case of `O=[N+]([O-])c1ccccc1CSc1nnc(-c2ccc3c(c2)OCCO3)n1-c1ccccc1`, the IC50 was found to be 12 µM in [1], 69.8 µM in assay [2], 8.3 µM in assay [3] and 26.4 µM in assay [4].

As to `O=[N+]([O-])c1ccc(CSc2nnc(-c3ccc4c(c3)OCCO4)n2-c2ccccc2)cc1`, the IC50 in assay [1] is 13.8 µM; in [2] it was 36.2 µM; in [3] it was 13.8 µM; in assay [4], 48.6 µM.

For `Sc1nnc(-c2ccc3c(c2)OCCO3)n1-c1ccccc1`, the IC50 in assay [1] was 60 µM; in [2], 51.9 µM; in [3] it was 38.4 µM; in [4], 47 µM.

Regarding `Fc1ccc(CSc2nnc(-c3ccc4c(c3)OCCO4)n2-c2ccccc2)c(F)c1`, the IC50 in [1] is 1.96 µM; in assay [2], 18.6 µM; in assay [3] it was 7.83 µM; in assay [4], over 100 µM.

With `Fc1cccc(F)c1CSc1nnc(-c2ccc3c(c2)OCCO3)n1-c1ccccc1`, the IC50 in [1] was 2.07 µM; in assay [2], 35.2 µM; in assay [3] it was 9.01 µM; in [4] it was 84.2 µM.

`Clc1cccc(CSc2nnc(-c3ccc4c(c3)OCCO4)n2-c2ccccc2)c1`: the IC50 in assay [1] came out at 2.39 µM; in [2], 15 µM; in assay [3], 10.6 µM; in assay [4] it was 51.2 µM.

With `O=[N+]([O-])c1cccc(CSc2nnc(-c3ccc4c(c3)OCCO4)n2-c2ccccc2)c1`, the IC50 in assay [1] was 49.3 µM; in assay [2], 45.2 µM; in assay [3] it was 7.59 µM; in [4], 30.1 µM.

Consider `Cc1ccc(CSc2nnc(-c3ccc4c(c3)OCCO4)n2-c2ccccc2)cc1`, for which the IC50 came out at 56.8 µM in assay [1], 49.7 µM in assay [2], 16.2 µM in [3] and 44.3 µM in assay [4].

For the compound `Brc1ccc(CSc2nnc(-c3ccc4c(c3)OCCO4)n2-c2ccccc2)cc1`, the IC50 in [1] was determined as 7.94 µM; in assay [2], 54.6 µM; in [3] it was 5.81 µM; in assay [4], 33.8 µM.

Turning to `c1ccc(CSc2nnc(-c3ccc4c(c3)OCCO4)n2-c2ccccc2)cc1`, the IC50 is 5.96 µM in [1], 32.8 µM in assay [2], 7.93 µM in assay [3] and 73.4 µM in assay [4].

In the case of `Clc1ccccc1CSc1nnc(-c2ccc3c(c2)OCCO3)n1-c1ccccc1`, the IC50 in [1] is 0.97 µM; in assay [2], 29 µM; in assay [3], 9.67 µM; in assay [4], 17.4 µM.

As for `Clc1ccc(CSc2nnc(-c3ccc4c(c3)OCCO4)n2-c2ccccc2)cc1`, the IC50 in assay [1] was 3.53 µM; in assay [2], 79.2 µM; in assay [3] it was 8.3 µM; in [4] it was 79.3 µM.

In the case of `COc1cccc(CSc2nnc(-c3ccc4c(c3)OCCO4)n2-c2ccccc2)c1`, the IC50 in assay [1] is 35.1 µM; in [2], over 100 µM; in [3], 10.1 µM; in assay [4] it was over 100 µM.

With `CO[C@@H]1[C@H](OC(=O)NC(=O)CCl)CC[C@]2(CO2)[C@H]1[C@@]1(C)O[C@@H]1CC=C(C)C` [O-CHLOROACETYLCARBAMOYLFUMAGILLOL], the IC50 in assay [5] worked out at 1.05 µM; in [1] it was 0.86 µM; in assay [2] it was 2.02 µM; in [3], 5.54 µM; in assay [4], 1.48 µM.

As to `Fc1ccccc1CSc1nnc(-c2ccc3c(c2)OCCO3)n1-c1ccccc1`, the Activity entry is “Dose-dependent effect” in assay [6]; 0.8% in [8]; 8% in assay [9]; 32.8% in [10]; 3.49% in assay [12]; 13.17% in assay [13]. The Activity in [14] was 24.49%; in [16], 4.03%; in assay [17], 18%; in [18], 27.21%; in assay [20], 11%; in assay [21], 23.25%. In addition, the Activity in assay [22] stood at 26.23%. For the same compound, the viability at 0.5 µM in assay [7] stood at 58.3%. Besides, in assay [11], the viability at 1 µM amounted to 58.9%. In assay [15], the viability at 2 µM came to 50.8%. In addition, in assay [19], the viability at 4 µM came to 39.5%. Besides, the IC50 in assay [1] was 0.81 µM; in assay [2] it was 24.2 µM; in assay [3], 13.6 µM; in assay [4] it was 18.6 µM.

With `Cc1ccccc1CSc1nnc(-c2ccc3c(c2)OCCO3)n1-c1ccccc1`, the IC50 was 20.5 µM in assay [1], 36 µM in assay [2], 12.7 µM in [3] and over 100 µM in assay [4].

For the compound `Brc1ccccc1CSc1nnc(-c2ccc3c(c2)OCCO3)n1-c1ccccc1`, the IC50 was 4.73 µM in assay [1], over 100 µM in assay [2], 7.35 µM in [3] and over 100 µM in assay [4].

As to `Fc1ccc(CSc2nnc(-c3ccc4c(c3)OCCO4)n2-c2ccccc2)cc1`, the IC50 was 1.02 µM in assay [1], 46.9 µM in assay [2], 20.8 µM in [3] and over 100 µM in assay [4].
